Laboratory results taken from US20250313572A1, “MACROCYCLIC MCL-1 INHIBITORS AND METHODS OF USE” (AbbVie Inc., priority 2017, published 2025).
Read-outs that look alike come from different tables or passages of the source.

Tests used:
GST-MCL-1 = GST-MCL-1 (Homo sapiens, UniProt Q07820); test: TR-FRET MCL-1 binding assay (competition with probe F-Bak)
Method: Tb-anti-GST antibody was purchased from Invitrogen (Catalog No. PV4216).
For the assay, an acoustic dispenser was used to prepare dilution series from 10 mM test compounds in 100% DMSO and directly transfer 160 nL into low volume 384-well assay plates. 8 μL of a protein/probe/antibody mix was then added to each well resulting in final concentrations listed below: • Test compound: 11 three-fold dilutions beginning at 25 μM
The samples were then mixed on a shaker for 1 minute and incubated for an additional 2 hours at room temperature. For each assay plate, a probe/antibody and protein/antibody/probe mixture were included as a negative and a positive control, respectively. Fluorescence was measured on the Envision (Perkin Elmer) using a 340/35 nm excitation filter and 520/525 (F-Bak) and 495/510 nm (Tb-labeled anti-his antibody) emission filters. […] The TR-FRET assay can be performed in the presence of varying concentrations of human serum (HS) or fetal bovine serum (FBS). Compounds were tested both without HS and in the presence of 10% HS.

[1] = test system: NCI-H929 human multiple myeloma tumor cell line; test: NCI-H929 cell viability assay (CellTiter-Glo, 24 hours); assay type: cell-based; settings: Homo sapiens, NCI-H929, 24 h, read-out: H929 Viability IC50 (μM, 10% FBS), 10% FBS, 24 hours of compound treatment
[2] = test system: AMO-1 human multiple myeloma tumor cell line; test: AMO-1 cell viability assay (CellTiter-Glo, 24 hours); assay type: cell-based; settings: Homo sapiens, AMO1, 24 h, read-out: AMO-1 Viability IC50 (μM, 10% FBS), 10% FBS, 24 hours of compound treatment
Method: Each concentration was tested in duplicate at least 3 independent times. A luminescent signal proportional to the number of viable cells following 24 hours of compound treatment was determined using the CellTiter-Glo® Luminescent Cell Viability Assay according to the manufacturer's recommendations (Promega Corp., Madison, WI). The plates were read in a Perkin Elmer Envision using a Luminescence protocol. To generate dose response curves the data is normalized to percent viability by setting the averages of the staurosporine (10 μM) and DMSO only control wells to 0% and 100% viability respectively.

[3] = MCL-1 Binding Ki (nM, 10% HS), in the presence of 10% HS (human serum)
[4] = without HS, read-out: MCL-1 Binding Ki

Chain of GST-MCL-1 (Q07820 whole entry): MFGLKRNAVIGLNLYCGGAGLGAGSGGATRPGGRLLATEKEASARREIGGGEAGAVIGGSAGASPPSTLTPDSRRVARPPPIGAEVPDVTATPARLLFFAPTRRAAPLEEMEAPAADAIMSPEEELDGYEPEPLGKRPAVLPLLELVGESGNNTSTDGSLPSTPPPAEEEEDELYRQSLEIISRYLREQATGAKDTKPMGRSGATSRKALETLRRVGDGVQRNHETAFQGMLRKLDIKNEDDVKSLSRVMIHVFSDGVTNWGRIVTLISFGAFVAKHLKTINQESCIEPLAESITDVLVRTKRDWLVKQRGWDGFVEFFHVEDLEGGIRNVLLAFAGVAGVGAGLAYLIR

SMILES | Ki (GST-MCL-1; [3]) [nM] | Ki (GST-MCL-1; [4]) [nM] | IC50 [1] [µM] | IC50 [2] [µM]
COCCOCCOCCOc1ccccc1-c1nccc(COc2ccc3cc2C[C@@H](C(=O)O)Oc2ncnc4sc(-c5ccc(F)cc5)c(c24)-c2ccc(c(Cl)c2C)O[C@H](CN2CCN(C)CC2)CO3)n1 (atropisomer, axis not shown) [Example 2, (7S,16R,21S)-19-chloro-1-(4-fluorophenyl)-10-{[2-(2-{2-[2-(2-methoxyethoxy)ethoxy]ethoxy}phenyl)pyrimidin-4-yl]methoxy}-20-methyl-16-[(4-methylpiperazin-1-yl)methyl]-7,8,15,16-tetrahydro-18,21-etheno-9,13-(metheno)-6,14,17-trioxa-2-thia-3,5-diazacyclononadeca[1,2,3-cd]indene-7-carboxylic Acid] | 76 | 4.1 | 0.276 | 0.21
COCCOCCOCCOc1ccc(-c2nccc(COc3ccc4cc3C[C@H](C(=O)O)Oc3ncnc5sc(-c6ccc(F)cc6)c(c35)-c3ccc(c(Cl)c3C)O[C@H](CN3CCN(C)CC3)CO4)n2)cc1 (atropisomer, axis not shown) [Example 13, (7R,16R,21S)-19-chloro-1-(4-fluorophenyl)-10-{[2-(4-{2-[2-(2-methoxyethoxy)ethoxy]ethoxy}phenyl)pyrimidin-4-yl]methoxy}-20-methyl-16-[(4-methylpiperazin-1-yl)methyl]-7,8,15,16-tetrahydro-18,21-etheno-13,9-(metheno)-6,14,17-trioxa-2-thia-3,5-diazacyclononadeca[1,2,3-cd]indene-7-carboxylic Acid] | 0.251 | 0.054 | 0.001 | 0.00046
Cc1c2ccc(c1Cl)O[C@H](CN1CCN(C)CC1)COc1ccc(OCc3ccnc(-c4ccc(CCC(=O)O)cc4)n3)c(c1)C[C@H](C(=O)O)Oc1ncnc3sc(-c4ccc(F)cc4)c-2c13 (atropisomer, axis not shown) [Example 17, (7R,16R,21S)-10-({2-[4-(2-carboxyethyl)phenyl]pyrimidin-4-yl}methoxy)-19-chloro-1-(4-fluorophenyl)-20-methyl-16-[(4-methylpiperazin-1-yl)methyl]-7,8,15,16-tetrahydro-18,21-etheno-13,9-(metheno)-6,14,17-trioxa-2-thia-3,5-diazacyclononadeca[1,2,3-cd]indene-7-carboxylic Acid] | 0.246 | 0.015 | 0.0298 | 0.0155
Cc1c2ccc(c1Cl)O[C@H](CN1CCN(C)CC1)COc1ccc(OCc3ccnc(-c4ccc(OC[C@H](O)CO)cc4)n3)c(c1)C[C@H](C(=O)O)Oc1ncnc3sc(-c4ccc(F)cc4)c-2c13 (atropisomer, axis not shown) [Example 18, (7R,16R,21S)-19-chloro-10-[(2-{4-[(2R)-2,3-dihydroxypropoxy]phenyl}pyrimidin-4-yl)methoxy]-1-(4-fluorophenyl)-20-methyl-16-[(4-methylpiperazin-1-yl)methyl]-7,8,15,16-tetrahydro-18,21-etheno-13,9-(metheno)-6,14,17-trioxa-2-thia-3,5-diazacyclononadeca[1,2,3-cd]indene-7-carboxylic Acid] | 0.269 | 0.011 | 0.00531 | 0.00295
Cc1c2ccc(c1Cl)O[C@H](CN1CCN(C)CC1)COc1ccc(OCc3ccnc(-c4ccccc4C(=O)O)n3)c(c1)C[C@H](C(=O)O)Oc1ncnc3sc(-c4ccc(F)cc4)c-2c13 (atropisomer, axis not shown) [Example 19, (7R,16R)-10-{[2-(2-carboxyphenyl)pyrimidin-4-yl]methoxy}-19-chloro-1-(4-fluorophenyl)-20-methyl-16-[(4-methylpiperazin-1-yl)methyl]-7,8,15,16-tetrahydro-18,21-etheno-13,9-(metheno)-6,14,17-trioxa-2-thia-3,5-diazacyclononadeca[1,2,3-cd]indene-7-carboxylic Acid] | 0.069 | 0.006 | 0.365 | 0.0963
COCCOCCOCCOCCOCCOC[C@H]1CN(c2nccc(COc3ccc4cc3C[C@H](C(=O)O)Oc3ncnc5sc(-c6ccc(F)cc6)c(c35)-c3c(C)c(Cl)c(c(Cl)c3C)O[C@H](CN3CCN(C)CC3)CO4)n2)CCO1 [Example 83, (7R,16R)-19,23-dichloro-1-(4-fluorophenyl)-10-({2-[(2R)-2-(2,5,8,11,14,17-hexaoxaoctadecan-1-yl)morpholin-4-yl]pyrimidin-4-yl}methoxy)-20,22-dimethyl-16-[(4-methylpiperazin-1-yl)methyl]-7,8,15,16-tetrahydro-18,21-etheno-13,9-(metheno)-6,14,17-trioxa-2-thia-3,5-diazacyclononadeca[1,2,3-cd]indene-7-carboxylic Acid] |  |  | 0.0026 | 
Cc1c(Cl)c2c(Cl)c(C)c1-c1c(-c3ccc(F)cc3)sc3ncnc(c13)O[C@@H](C(=O)O)Cc1cc(ccc1OCc1ccnc([C@H]3CC[C@H](OCCOCC4COCCO4)CC3)n1)OC[C@@H](CN1CCN(C)CC1)O2 (stereo partly drawn) [Example 92, (7R,16R)-19,23-dichloro-10-({2-[(1r,4r)-4-{2-[(1,4-dioxan-2-yl)methoxy]ethoxy}cyclohexyl]pyrimidin-4-yl}methoxy)-1-(4-fluorophenyl)-20,22-dimethyl-16-[(4-methylpiperazin-1-yl)methyl]-7,8,15,16-tetrahydro-18,21-etheno-13,9-(metheno)-6,14,17-trioxa-2-thia-3,5-diazacyclononadeca[1,2,3-cd]indene-7-carboxylic Acid] |  |  | 0.00031 | 0.000223
Cc1c(Cl)c2c(Cl)c(C)c1-c1c(-c3ccc(F)cc3)sc3ncnc(c13)O[C@@H](C(=O)O)Cc1cc(ccc1OCc1ccnc(-c3ccc(OCCN4CCOCC4)cc3)n1)OC[C@@H](CN1CCN(C)CC1)O2 [Example 168, (7R,16R)-19,23-dichloro-1-(4-fluorophenyl)-20,22-dimethyl-16-[(4-methylpiperazin-1-yl)methyl]-10-[(2-{4-[2-(morpholin-4-yl)ethoxy]phenyl}pyrimidin-4-yl)methoxy]-7,8,15,16-tetrahydro-18,21-etheno-13,9-(metheno)-6,14,17-trioxa-2-thia-3,5-diazacyclononadeca[1,2,3-cd]indene-7-carboxylic Acid] | 0.671 | 0.025 |  | 
Cc1c(Cl)c2c(Cl)c(C)c1-c1c(-c3ccc(F)cc3)sc3ncnc(c13)O[C@@H](C(=O)O)Cc1cc(ccc1OCc1ccnc(-c3ccc(OC[C@@H]4CN(C)CCCO4)cc3)n1)OC[C@@H](CN1CCN(C)CC1)O2 [Example 173, (7R,16R)-19,23-dichloro-1-(4-fluorophenyl)-20,22-dimethyl-10-{[2-(4-{[(2S)-4-methyl-1,4-oxazepan-2-yl]methoxy}phenyl)pyrimidin-4-yl]methoxy}-16-[(4-methylpiperazin-1-yl)methyl]-7,8,15,16-tetrahydro-18,21-etheno-13,9-(metheno)-6,14,17-trioxa-2-thia-3,5-diazacyclononadeca[1,2,3-cd]indene-7-carboxylic Acid] |  |  | 0.00452 | 0.00114
Cc1c(Cl)c2c(Cl)c(C)c1-c1c(-c3ccc(F)cc3)sc3ncnc(c13)O[C@@H](C(=O)O)Cc1cc(ccc1OCc1ccnc(-c3ccc(O[C@H]4CO[C@H]5[C@@H]4OC[C@@H]5O)cc3)n1)OC[C@@H](CN1CCN(C)CC1)O2 [Example 174, (7R,16R)-19,23-dichloro-1-(4-fluorophenyl)-10-{[2-(4-{[(3S,3aR,6S,6aR)-6-hydroxyhexahydrofuro[3,2-b]furan-3-yl]oxy}phenyl)pyrimidin-4-yl]methoxy}-20,22-dimethyl-16-[(4-methylpiperazin-1-yl)methyl]-7,8,15,16-tetrahydro-18,21-etheno-13,9-(metheno)-6,14,17-trioxa-2-thia-3,5-diazacyclononadeca[1,2,3-cd]indene-7-carboxylic Acid] | 0.2 | 0.008 |  | 
Cc1c(Cl)c2c(Cl)c(C)c1-c1c(-c3ccc(F)cc3)sc3ncnc(c13)O[C@@H](C(=O)O)Cc1cc(ccc1OCc1ccnc(OC[C@@H]3CN(C)CCCO3)n1)OC[C@@H](CN1CCN(C)CC1)O2 [Example 177, (7R,16R)-19,23-dichloro-1-(4-fluorophenyl)-20,22-dimethyl-10-[(2-{[(2S)-4-methyl-1,4-oxazepan-2-yl]methoxy}pyrimidin-4-yl)methoxy]-16-[(4-methylpiperazin-1-yl)methyl]-7,8,15,16-tetrahydro-18,21-etheno-13,9-(metheno)-6,14,17-trioxa-2-thia-3,5-diazacyclononadeca[1,2,3-cd]indene-7-carboxylic Acid] |  |  | 0.00929 | 0.00422
COCCOCCOc1ccc(-c2ccccc2OC)nc1COc1ccc2cc1C[C@H](C(=O)O)Oc1ncnc3sc(-c4ccc(F)cc4)c(c13)-c1c(C)c(Cl)c(c(Cl)c1C)O[C@H](CN1CCN(C)CC1)CO2 [Example 178, (7R,16R)-19,23-dichloro-1-(4-fluorophenyl)-10-({3-[2-(2-methoxyethoxy)ethoxy]-6-(2-methoxyphenyl)pyridin-2-yl}methoxy)-20,22-dimethyl-16-[(4-methylpiperazin-1-yl)methyl]-7,8,15,16-tetrahydro-18,21-etheno-9,13-(metheno)-6,14,17-trioxa-2-thia-3,5-diazacyclononadeca[1,2,3-cd]indene-7-carboxylic Acid] |  |  | 0.37 | 0.152
